Source: ChEMBL document CHEMBL4513149, “CO-ADD screening of MMV (CH) - MMV compounds” (2021)
≈ marks a conversion by molar mass, not a printed value.

Experiments:
[1] = system: Staphylococcus aureus; experiment: microbe, parasite or virus in culture; conditions: ATCC 43300, 18 h, ASSAY_TEST Inhibition of Bacterial Growth, detection method Absorption (OD600), MEDIA CAMHB, plate type 384well, NBS, CORNING #3640
Description: Antibacterial activity against Staphylococcus aureus MRSA ATCC 43300 (CO-ADD:GP_020); MIC in CAMBH media, using NBS plates, by OD(600)

[2] = system: Pseudomonas aeruginosa; experiment: microbe, parasite or virus in culture; conditions: ATCC 27853, 18 h, ASSAY_TEST Inhibition of Bacterial Growth, detection method Absorption (OD600), MEDIA CAMHB, plate type 384well, NBS, CORNING #3640
Description: Antibacterial activity against Pseudomonas aeruginosa ATCC 27853 (CO-ADD:GN_042); MIC in CAMBH media using NBS plates, by OD(600)

[3] = system: HEK293; experiment: cells; format: functional; conditions: Homo sapiens, ATCC CRL1573, HEK293; ASSAY_TEST Inhibition of Cell Viability; detection method Resazurin; Fluorescence (ex560/em590); MEDIA DMEM with 10% FBS; plate type 384well; TC; CORNING #3712; time 18 hr
[4] = system: Candida albicans; experiment: microbe, parasite or virus in culture; conditions: ATCC 90028, ASSAY_TEST Inhibition of Fungal Growth, detection method Absorption (OD530), plate type 384well, NBS, CORNING #3640
Description: Antifungal activity against Candida albicans ATCC 90028 (CO-ADD:FG_001); MIC in YNB media using NBS plates, by OD630

[5] = system: Klebsiella pneumoniae; experiment: microbe, parasite or virus in culture; conditions: ATCC 700603, 18 h, ASSAY_TEST Inhibition of Bacterial Growth, detection method Absorption (OD600), MEDIA CAMHB, plate type 384well, NBS, CORNING #3640
Description: Antibacterial activity against Klebsiella pneumoniae MDR ATCC 70063 (CO-ADD:GN_003); MIC in CAMBH media using NBS plates, by OD(600)

[6] = system: Escherichia coli; experiment: microbe, parasite or virus in culture; conditions: ATCC 25922, 18 h, ASSAY_TEST Inhibition of Bacterial Growth, detection method Absorption (OD600), MEDIA CAMHB, plate type 384well, NBS, CORNING #3640
Description: Antibacterial activity against Escherichia coli ATCC 25922 (CO-ADD:GN_001); MIC in CAMBH media using NBS plates, by OD(600)

[7] = system: Cryptococcus neoformans
Description: Antifungal activity against Cryptococcus neoformans H99 ATCC 208821 (CO-ADD:FG_002); MIC in YNB media using NBS plates, by Resazurin OD(600-570)

[8] = system: Acinetobacter baumannii; experiment: microbe, parasite or virus in culture; conditions: ATCC 19606, 18 h, ASSAY_TEST Inhibition of Bacterial Growth, detection method Absorption (OD600), MEDIA CAMHB, plate type 384well, NBS, CORNING #3640
Description: Antibacterial activity against Acinetobacter baumannii ATCC 19606 (CO-ADD:GN_034); MIC in CAMBH media using NBS plates, by OD600

Compound	MIC [1] [µM]	MIC [2] [µM]	CC50 [3] [µM]	MIC [4] [µM]	MIC [5] [µM]	MIC [6] [µM]	MIC [7] [µM]	MIC [8] [µM]
O=C(Nc1ccccc1)c1ccc(-c2cc3ccncc3cc2OC2CCNCC2)s1	> 10	> 10	> 10	> 10	> 10	> 10	> 10	> 10
CC(C)(C)[C@H]1CC[C@H](CC2=C(O)C(=O)c3ccccc3C2=O)CC1 [BUPARVAQUONE]	> 10	> 10	> 10	> 10	> 10	> 10	> 10	> 10
CN1CCN(CCCOc2ncc(Nc3ncc(-c4ccc(C(F)(F)F)c(F)c4)nc3C(N)=O)cn2)CC1	> 10	> 10	> 10	> 10	> 10	> 10	> 10	> 10
Cc1[nH]c2ccccc2c1C(c1cccs1)N1CCN(C)CC1 (stereo not drawn)	> 10	> 10	> 10	5 (≈ 1.63 µg/mL)	> 10	> 10	> 10	> 10
CC(=O)NC[C@H]1CN(c2ccc(N3CCSCC3)c(F)c2)C(=O)O1 [SUTEZOLID]	5 (≈ 1.77 µg/mL)	> 10	> 10	> 10	> 10	> 10	> 10	> 10
Oc1c(I)cc(I)c2cccnc12 [IODOQUINOL]	> 10	> 10	> 10	> 10	> 10	> 10	> 10	> 10
N=C(N)Nc1ccc(-c2ccc(-c3ccc(N=C(N)N)c(Cl)c3)o2)cc1Cl	10 (≈ 4.03 µg/mL)	> 10	> 10	> 10	> 10	> 10	> 10	> 10
CO[C@H]1/C=C/O[C@@]2(C)Oc3c(C)c(O)c4c(O)c(/c(=C/NN5CCN(C)CC5)c(O)c4c3C2=O)=N\C(=O)/C(C)=C\C=C/[C@H](C)[C@H](O)[C@@H](C)[C@@H](O)[C@@H](C)[C@H](OC(C)=O)[C@@H]1C	≤ 0.0781	5 (≈ 4.11 µg/mL)	> 10	> 10	> 10	10 (≈ 8.23 µg/mL)	> 10	> 10
O=C1O[C@@H](COc2ccon2)CN1c1cc(F)c(C2=CCN(Cc3ccccc3)CC2)c(F)c1	> 10	> 10	> 10	> 10	> 10	> 10	> 10	> 10
COc1cccc(-n2nnnc2S(=O)(=O)Cc2ccccc2)c1	> 10	> 10	> 10	> 10	> 10	> 10	> 10	> 10
CC(=O)NC[C@@H]1CN(c2ccc(N3CCOCC3)c(F)c2)C(=O)O1	2.5 (≈ 0.843 µg/mL)	> 10	> 10	> 10	> 10	> 10	> 10	> 10
c1cncc(NCc2ccc(-c3cc4ccncc4cc3OC3CCNCC3)s2)c1	> 10	> 10	> 10	> 10	> 10	> 10	> 10	> 10
CCCn1c(NC(=O)c2ccc3ccccc3n2)nc2ccccc21	> 10	> 10	> 10	> 10	> 10	> 10	> 10	> 10
Cc1cc(NC(=O)c2ccc(Oc3ccc(Cl)cc3O)o2)no1	> 10	> 10	> 10	> 10	> 10	> 10	> 10	> 10
O=C(Nc1ccc2c(c1)B(O)OC2)c1ccccc1C(F)(F)F	> 10	> 10	> 10	> 10	> 10	> 10	> 10	> 10
NC(CC(=O)c1ccc(Cl)cc1Cl)C(Cl)(Cl)Cl (stereo not drawn)	> 10	> 10	> 10	> 10	> 10	> 10	> 10	> 10
CO/N=C(\C(=O)OC)c1ccccc1CO/N=C(\C)c1cccc(C(F)(F)F)c1	> 10	> 10	> 10	> 10	> 10	> 10	> 10	> 10
CCCCCCCCCCCCCCCCOP(=O)([O-])OCC[N+](C)(C)C [MILTEFOSINE]	> 10	> 10	> 10	> 10	> 10	> 10	> 10	> 10
O=C(Nc1nnc(-c2ccc(Cl)s2)o1)c1ccc(Cl)s1	10 (≈ 3.46 µg/mL)	> 10	> 10	> 10	> 10	> 10	> 10	> 10
Brc1cncc(-c2cc(NCCCn3ccnc3)nc(-c3ccccc3)n2)c1	> 10	> 10	> 10	> 10	> 10	> 10	> 10	> 10
COc1cc(C2=NCCN2)cc2cc(-c3ccc(C4=NCCN4)cc3)oc12	> 10	> 10	> 10	> 10	> 10	> 10	> 10	> 10
C[C@@H]1[C@H](O)[C@@H](C)/C=C/C=C/C=C/C=C/C=C/C=C/C=C/[C@H](O[C@@H]2O[C@H](C)[C@@H](O)[C@H](N)[C@@H]2O)C[C@@H]2O[C@](O)(C[C@@H](O)C[C@@H](O)[C@H](O)CC[C@@H](O)C[C@@H](O)CC(=O)O[C@H]1C)C[C@H](O)[C@H]2C(=O)O [AMPHOTERICIN B]	> 10	> 10	> 10	> 10	> 10	> 10	> 10	> 10
Cc1cc(NCCc2ccccc2)nc(NC(=N)Nc2ccc(Cl)cc2)n1	> 10	> 10	> 10	> 10	> 10	> 10	> 10	> 10
Cc1nc(-c2ccccn2)nc(N(C)CCc2ccccc2)c1Cl	> 10	> 10	> 10	> 10	> 10	> 10	> 10	> 10
c1csc(-c2cnc3sc(NCC4CCOCC4)nn23)c1	> 10	> 10	> 10	> 10	> 10	> 10	> 10	> 10
COC(=O)Nc1nc2cc(C(=O)c3ccccc3)ccc2[nH]1 [MEBENDAZOLE]	> 10	> 10	> 10	> 10	> 10	> 10	> 10	> 10
